From US20110092463A1, “COMBINATION FOR USE IN THE TREATMENT OF INFLAMMATORY DISORDERS” (priority 2008, published 2011)

Test system: human macrophage cell-line MonoMac-6 (MM6)
Experiment: PMA-induced release of tumor necrosis factor (TNF) from MonoMac-6 cells, Human TNF-α ELISA
Type: cell-based
Conditions: n=2; for TNF concentration as % of the untreated PMA-stimulated control MM6 cells: 48 hours, PMA 10 ng/mL five hours, mean; for mean TNF concentration after PMA stimulation: 48 hours treatment, then PMA 10 ng/mL five hours, untreated control 75.3 pg/mL
Description: Cells from the human macrophage cell-line MonoMac-6 (MM6) (Ziegler-Heitbrock et al, Int. J. Cancer, 41, 456 (1988)) were cultured (37° C./5% CO2) in RPMI-1640 medium supplemented with 1 mM sodium pyruvate, 1× nonessential amino acids, 10 μg/mL insulin, 1 mM oxalacetic acid, 100 units/mL penicillin, 100 μg/mL streptomycin and 10% (v/v) fetal bovine serum. At the start of the experiment, MM6 cells were seeded in 96-well plates at a density of 1×10^5 cells/mL (200 μL per well). The MM6 cells were treated (incubation conditions as above) with indicated final concentrations of the test drugs for 48 hours prior stimulation with phorbol-12-myristate-13-acetate (PMA; Sigma-Aldrich, Stockholm, Sweden) followed by measurement of PMA-induced release of tumor necrosis factor (TNF) (see below for details). To stimulate formation and release of TNF, the MM6 cells were incubated (37° C./5% CO2) for five hours (in RPMI-1640 with 10% fetal bovine serum with supplements as above) with PMA at a final concentration of 10 ng/mL. After spinning down the cells after the different MM6 incubations/stimulations (see above and below), the concentrations of TNF in the supernatants were quantitated using Human TNF-α ELISA Kit from Mabtech (Nacka, Sweden) according to instructions supplied by the manufacturer. Stock solutions of pemirolast (potassium salt; purchased from American Custom Chemicals Corporation, San Diego, USA) and losartan (potassium salt; purchased from AK Scientific, Inc., Mountain View, Calif., USA) were made in sterile saline. […] However, after five hours of PMA stimulation, the mean TNF concentration in the supernatants of untreated MM6 cells was 75.3 pg/mL (n=2).

[1] = 0.1 μM of each drug (alone or in combination)
[2] = 1 μM of each drug (alone or in combination)
[3] = 10 μM of each drug (alone or in combination)
[4] = 100 μM of each drug (alone or in combination)

Structure (SMILES)	TNF concentration as % of the untreated PMA-stimulated control MM6 cells [1]	mean TNF concentration after PMA stimulation (0.1 μM test drug)	TNF concentration as % of the untreated PMA-stimulated control MM6 cells [2]	mean TNF concentration after PMA stimulation (1 μM test drug)	TNF concentration as % of the untreated PMA-stimulated control MM6 cells [3]	mean TNF concentration after PMA stimulation (10 μM test drug)	TNF concentration as % of the untreated PMA-stimulated control MM6 cells [4]	mean TNF concentration after PMA stimulation (100 μM test drug)
CCCCc1nc(Cl)c(CO)n1Cc1ccc(-c2ccccc2-c2nn[nH]n2)cc1 [losartan]	98%	73.8 pg/mL	90%	67.5 pg/mL	99%	74.5 pg/mL	119%	89.8 pg/mL
Cc1cccn2c(=O)c(-c3nnn[nH]3)cnc12 [pemirolast]	88%	66.5 pg/mL	85%	64.0 pg/mL	72%	54.3 pg/mL	96%	72.2 pg/mL
